From patent US20260076372A1, “SPRAYABLE ANTIFUNGAL COMPOSITION FOR USE IN THE FIELD OF AGRICULTURE, AND ASSOCIATED METHOD AND USE” (GAIAGO, priority 2022, published 2026)
Converted amounts (≈) assume the structure as drawn. “And” between values parts separate entries of the source, which are not always exact repeats. Identical values can stand only once.

Tests used:
[1] = tested on: Alternaria solani; assay: in vitro 96-well micro-titration test on Alternaria solani spores; format: cell-based; settings: for EC95 (%): A. solani, Table 22, ingredient alone in water
[2] = tested on: Septoria tritici (Zymoseptoria tritici); assay: in vitro 96-well micro-titration test on Septoria tritici / Zymoseptoria tritici; format: cell-based; settings: for EC95 (%): Z. tritici, Table 23, ingredient alone in water
[3] = tested on: Plasmopara viticola; assay: in vitro antifungal action of single ingredients on Plasmopara viticola; format: cell-based
From the text: In Vitro Results Showing the Syngergistic Action of Yucca Juice with the Other Compounds of the Composition According to the Invention on A. solani, Z. tritici, and Plasmopara viticola,
The following tables show in vitro the synergistic antifungal action between yucca juice and the other compounds of the composition of the invention on various pathogens. The concentrations given are as a mass %. The solutions tested as aqueous solutions.
Mo denotes sodium molybdate, Bo denotes boron ethanolamine.

[4] = tested on: Fusarium graminearum; assay: microbe, parasite or virus in culture; format: cell-based
[5] = tested on: Pythium ultimum; assay: in vitro test on P. ultimum
Method: The evaluations were performed with a 96-well micro-titration test to evaluate the in vitro fungicidal activity of each solution.
Three repetitions (wells) were carried out. The value of the concentration making it possible to inhibit the growth of each pathogen (EC50) to 50% was determined using the optical density measurement.

[6] = Concentration 0.05% mass of the stated aqueous solution

O=S(=O)([O-])[O-].[Mn+2] [Mn 7%]
EC95 (%) [1]: 6.4%
inhibition of A. solani, ingredient alone in water [1, 6]: 0.0%
inhibition of A. solani, ingredient alone in water ([1]; Concentration 0.50%): 16.9%
inhibition of A. solani, ingredient alone in water ([1]; Concentration 1.00%): 29.6%
inhibition of A. solani, ingredient alone in water ([1]; Concentration 2.00%): 73.2%
inhibition of A. solani, ingredient alone in water ([1]; Concentration 3.00%): 89.4%
inhibition of A. solani, ingredient alone in water ([1]; Concentration 6.00%): 94.5%
inhibition of A. solani, ingredient alone in water ([1]; Concentration 10.00%): 101.1%
inhibition of Z. tritici, ingredient alone in water ([2]; Concentration 0.05%): 11.3%
inhibition of Z. tritici, ingredient alone in water ([2]; Concentration 0.50%): 27.6%
inhibition of Z. tritici, ingredient alone in water ([2]; Concentration 1.00%): 33.5%
inhibition of Z. tritici, ingredient alone in water ([2]; Concentration 2.00%): 28.7%
inhibition of Z. tritici, ingredient alone in water ([2]; Concentration 3.00%): 28.0%
inhibition of Z. tritici, ingredient alone in water ([2]; Concentration 6.00%): 29.0%
inhibition of Z. tritici, ingredient alone in water ([2]; Concentration 10.00%): 29.5%
EC95 (%) [2]: >10%
in vitro activity against Plasmopara viticola, ingredient alone in water ([3]; Concentration 0.05%): 25.41%
in vitro activity against Plasmopara viticola, ingredient alone in water ([3]; Concentration 0.50%): 89.41%
in vitro activity against Plasmopara viticola, ingredient alone in water ([3]; Concentration 1.00%): 94.78%
in vitro activity against Plasmopara viticola, ingredient alone in water ([3]; Concentration 2.00%): 97.25%
in vitro activity against Plasmopara viticola, ingredient alone in water ([3]; Concentration 3.00%): 97.53%
in vitro activity against Plasmopara viticola, ingredient alone in water ([3]; Concentration 6.00%): 97.69%
in vitro activity against Plasmopara viticola, ingredient alone in water ([3]; Concentration 10.00%): 97.64%

[Na+].[Na+].[O]=[Mo](=[O])([O-])[O-] [Mo 0.01%, sodium molybdate]
EC95 (%) [1]: >10%
inhibition of A. solani, ingredient alone in water [1, 6]: 2.2%
inhibition of A. solani, ingredient alone in water ([1]; Concentration 0.50%): −1.2%
inhibition of A. solani, ingredient alone in water ([1]; Concentration 1.00%): −7.4%
inhibition of A. solani, ingredient alone in water ([1]; Concentration 2.00%): −1.3%
inhibition of A. solani, ingredient alone in water ([1]; Concentration 3.00%): −1.8%
inhibition of A. solani, ingredient alone in water ([1]; Concentration 6.00%): −1.5%
inhibition of A. solani, ingredient alone in water ([1]; Concentration 10.00%): −0.4%
inhibition of Z. tritici, ingredient alone in water ([2]; Concentration 0.05%): −1.7%
inhibition of Z. tritici, ingredient alone in water ([2]; Concentration 0.50%): −1.1%
inhibition of Z. tritici, ingredient alone in water ([2]; Concentration 1.00%): −2.3%
inhibition of Z. tritici, ingredient alone in water ([2]; Concentration 2.00%): −2.2%
inhibition of Z. tritici, ingredient alone in water ([2]; Concentration 3.00%): −1.8%
inhibition of Z. tritici, ingredient alone in water ([2]; Concentration 6.00%): −1.6%
inhibition of Z. tritici, ingredient alone in water ([2]; Concentration 10.00%): −2.2%
EC95 (%) [2]: >10%
in vitro activity against Plasmopara viticola, ingredient alone in water ([3]; Concentration 0.05%): 15.33%
in vitro activity against Plasmopara viticola, ingredient alone in water ([3]; Concentration 0.50%): 46.43%
in vitro activity against Plasmopara viticola, ingredient alone in water ([3]; Concentration 1.00%): 53.15%
in vitro activity against Plasmopara viticola, ingredient alone in water ([3]; Concentration 2.00%): 72.42%
in vitro activity against Plasmopara viticola, ingredient alone in water ([3]; Concentration 3.00%): 74.22%
in vitro activity against Plasmopara viticola, ingredient alone in water ([3]; Concentration 6.00%): 74.22%
in vitro activity against Plasmopara viticola, ingredient alone in water ([3]; Concentration 10.00%): 96.02%

O=S(=O)([O-])[O-].[Zn+2] [Zn 7%]
EC95 (%) [1]: >10%
inhibition of A. solani, ingredient alone in water [1, 6]: −1.4%
inhibition of A. solani, ingredient alone in water ([1]; Concentration 0.50%): 6.3%
inhibition of A. solani, ingredient alone in water ([1]; Concentration 1.00%): 16.6%
inhibition of A. solani, ingredient alone in water ([1]; Concentration 2.00%): 32.1%
inhibition of A. solani, ingredient alone in water ([1]; Concentration 3.00%): 37.2%
inhibition of A. solani, ingredient alone in water ([1]; Concentration 6.00%): 49.7%
inhibition of A. solani, ingredient alone in water ([1]; Concentration 10.00%): 59.1%
inhibition of Z. tritici, ingredient alone in water ([2]; Concentration 0.05%): −4.9%
inhibition of Z. tritici, ingredient alone in water ([2]; Concentration 0.50%): 28.1%
inhibition of Z. tritici, ingredient alone in water ([2]; Concentration 1.00%): 39.8%
inhibition of Z. tritici, ingredient alone in water ([2]; Concentration 2.00%): 44.1%
inhibition of Z. tritici, ingredient alone in water ([2]; Concentration 3.00%): 47.4%
inhibition of Z. tritici, ingredient alone in water ([2]; Concentration 6.00%): 65.0%
inhibition of Z. tritici, ingredient alone in water ([2]; Concentration 10.00%): 77.2%
EC95 (%) [2]: >10%
in vitro activity against Plasmopara viticola, ingredient alone in water ([3]; Concentration 0.05%): 7.02%
in vitro activity against Plasmopara viticola, ingredient alone in water ([3]; Concentration 0.50%): 50.25%
in vitro activity against Plasmopara viticola, ingredient alone in water ([3]; Concentration 1.00%): 65.51%
in vitro activity against Plasmopara viticola, ingredient alone in water ([3]; Concentration 2.00%): 99.08%
in vitro activity against Plasmopara viticola, ingredient alone in water ([3]; Concentration 3.00%): 99.29%
in vitro activity against Plasmopara viticola, ingredient alone in water ([3]; Concentration 6.00%): 98.93%
in vitro activity against Plasmopara viticola, ingredient alone in water ([3]; Concentration 10.00%): 99.08%

Oc1ccc(/C=C/c2cc(O)cc(O)c2)cc1 [resveratrol, 5-[(E)-2-(4-hydroxyphenyl)-ethenyl]benzene-1,3-diol]
inhibition (%) of A. solani growth ([1]; 0.0064 μg/ml or ppm in water): 6.20%
inhibition (%) of A. solani growth ([1]; 0.032 μg/ml or ppm in water): 13.60%
inhibition (%) of A. solani growth ([1]; 0.16 μg/ml or ppm in water): 13.70%
inhibition (%) of A. solani growth ([1]; 0.8 μg/ml or ppm in water): 16.10%
inhibition (%) of A. solani growth ([1]; 4 μg/ml or ppm in water): 11.20%
inhibition (%) of A. solani growth ([1]; 20 μg/ml or ppm in water): 28.70%
inhibition (%) of A. solani growth ([1]; 100 μg/ml or ppm in water): 54.7%
inhibition of Fusarium graminearum ([4]; 0.0064 μg/ml or ppm): 0.30%
inhibition of Fusarium graminearum ([4]; 0.032 μg/ml or ppm): −2.90%
inhibition of Fusarium graminearum ([4]; 0.16 μg/ml or ppm): −3.90%
inhibition of Fusarium graminearum ([4]; 0.8 μg/ml or ppm): −1.60%
inhibition of Fusarium graminearum ([4]; 4 μg/ml or ppm): −3.80%
inhibition of Fusarium graminearum ([4]; 20 μg/ml or ppm): 18.20%
inhibition of Fusarium graminearum ([4]; 100 μg/ml or ppm): 53.30%
inhibition of Fusarium graminearum ([4]; 100 μg/ml or ppm, listed as Resveratrol (trans)): more than 50%
EC95 (μg/ml or ppm) ([4]; Fusarium graminearum, Table 9): >100 μg/ml or ppm
EC50 ([4]; Fusarium graminearum, read-out: EC50 (μg/ml or ppm)): 29.5 µg/mL (≈ 129 µM)
% inhibition of pathogen growth (S. tritici) ([2]; 0.0064 μg/ml or ppm): 0.00%
% inhibition of pathogen growth (S. tritici) ([2]; 0.032 μg/ml or ppm): −0.40%
% inhibition of pathogen growth (S. tritici) ([2]; 0.16 μg/ml or ppm): −0.40%
% inhibition of pathogen growth (S. tritici) ([2]; 0.8 μg/ml or ppm): 0.60%
% inhibition of pathogen growth (S. tritici) ([2]; 4 μg/ml or ppm): −2.60%
% inhibition of pathogen growth (S. tritici) ([2]; 20 μg/ml or ppm): −2.00%
% inhibition of pathogen growth (S. tritici) ([2]; 100 μg/ml or ppm): 104.90%
EC50 ([2]; Zymoseptoria tritici, S. tritici, Table 12, read-out: EC50 (μg/ml or ppm)): 72 µg/mL (≈ 315 µM)
concentration showing efficacy against Septoria tritici ([2]; in vitro): 100 ppm
inhibition of P. ultimum ([5]; 0.0064 μg/ml or ppm): −8.20%
inhibition of P. ultimum ([5]; 0.032 μg/ml or ppm): −0.30%
inhibition of P. ultimum ([5]; 0.16 μg/ml or ppm): 0.00%
inhibition of P. ultimum ([5]; 0.8 μg/ml or ppm): −1.70%
inhibition of P. ultimum ([5]; 4 μg/ml or ppm): 23.30%
inhibition of P. ultimum ([5]; 20 μg/ml or ppm): 72.40%
inhibition of P. ultimum ([5]; 100 μg/ml or ppm): 100% and 101.30%
EC50 ([5]; Globisporangium ultimum, read-out: EC50 (μg/ml or ppm)): 8.89 µg/mL (≈ 38.9 µM)
EC95 (μg/ml or ppm) ([5]; P. ultimum, Table 14): 73.85 μg/ml or ppm

boron ethanolamine [Bo 0.49%]
EC95 (%) [1]: >10%
inhibition of A. solani, ingredient alone in water [1, 6]: 6.5%
inhibition of A. solani, ingredient alone in water ([1]; Concentration 0.50%): 0.9%
inhibition of A. solani, ingredient alone in water ([1]; Concentration 1.00%): −0.5%
inhibition of A. solani, ingredient alone in water ([1]; Concentration 2.00%): −2.6%
inhibition of A. solani, ingredient alone in water ([1]; Concentration 3.00%): 2.4%
inhibition of A. solani, ingredient alone in water ([1]; Concentration 6.00%): −3.6%
inhibition of A. solani, ingredient alone in water ([1]; Concentration 10.00%): −3.3%
inhibition of Z. tritici, ingredient alone in water ([2]; Concentration 0.05%): 8.6%
inhibition of Z. tritici, ingredient alone in water ([2]; Concentration 0.50%): 7.6%
inhibition of Z. tritici, ingredient alone in water ([2]; Concentration 1.00%): 5.3%
inhibition of Z. tritici, ingredient alone in water ([2]; Concentration 2.00%): −1.6%
inhibition of Z. tritici, ingredient alone in water ([2]; Concentration 3.00%): −0.8%
inhibition of Z. tritici, ingredient alone in water ([2]; Concentration 6.00%): −4.3%
inhibition of Z. tritici, ingredient alone in water ([2]; Concentration 10.00%): −1.0%
in vitro activity against Plasmopara viticola, ingredient alone in water ([3]; Concentration 0.05%): 17.33%
in vitro activity against Plasmopara viticola, ingredient alone in water ([3]; Concentration 0.50%): 68.80%
in vitro activity against Plasmopara viticola, ingredient alone in water ([3]; Concentration 1.00%): 84.60%
in vitro activity against Plasmopara viticola, ingredient alone in water ([3]; Concentration 2.00%): 90.99%
in vitro activity against Plasmopara viticola, ingredient alone in water ([3]; Concentration 3.00%): 95.55%
in vitro activity against Plasmopara viticola, ingredient alone in water ([3]; Concentration 6.00%): 98.96%
in vitro activity against Plasmopara viticola, ingredient alone in water ([3]; Concentration 10.00%): 99.00%
